According to patent US11384115B2, “Nuclear sulfated oxysterol, potent regulator of lipid homeostasis, for therapy of hypercholesterolemia, hypertriglycerides, fatty liver diseases, and atherosclerosis” (Virginia Commonwealth University, priority 2004, dated 2022):

Key:
[1] = tested on: NFκB; assay: NFκB dependent reporter gene-Luc assay in H441 cells, TNFα-induced; type: cell-based, human
Protocol: A, THP-1 macrophages were treated with 25HC3S or 25HC for 24 hrs followed by addition or no addition of TNFα for another 3 hrs. The nuclear NFκB levels were analyzed by Western blot. The data represent one typical result out of three experiments. […] The reporter gene expression was induced by incubating with 10 ng/ml of TNFα for 3 hrs. The left figure represents cells transfected with pNFκB dependent reporter gene-Luc plasmid alone; the right figure, represents cells co-transfected with PPARγ expression plasmid.
(§1) H441 cells were seeded in 96-well plates. When cell density reached 90-95%, the cells were transfected with an expression plasmid as indicated using a lipid-based FuGENE HD transfection reagent according to the manufacture (Roche, Indianapolis, Ind.). A synthetic renilla luciferase reporter, phrG-TK (Promega, Wisconsin, Wis.), was used as a luciferase internal standard. For PPRE reporter gene assay, 50 ng of pGL3-PPRE-acyl-CoA oxidase luciferase reporter, 50 ng of expression plasmid pCMX-PPARγ, and 50 ng of phrG-TK vector (internal standard) were cotransfected as per the manufacture's instruction. […] Luciferase activities were determined using the Dual-Glo Luciferase Assay System according to the manufacturer's protocol (Promega, Wisconsin, Wis.). The amount of luciferase activity was measured using a TopCount NXT Microplate Scintillation and Luminescence Counter (Packard, Meriden, Conn.) and normalized to the amount of phG-TK luciferase activity. Transfections were carried out in triplicate for each sample, and each experiment was repeated three times.

[2] = Single peritoneal injection in mice, serum lipids and serum enzymes; type: in vivo
Protocol: Administration to female mice (20-25 g weight) was by peritoneal injection once with or without 72 μg of the nuclear oxysterol in 100 μl of 0.9% NaCl containing 3 μl of ethanol. Twelve hrs following the injection, blood was harvested for analysis of triglycerides and cholesterol.

[3] = tested on: PPARγ; assay: PPRE promoter reporter gene-luciferase assay in H441 cells; type: cell-based, human
Protocol: as §1

[4] = tested on: HepG2 cells; assay: Cholesterol biosynthesis from [1-14C]acetate by TLC and HPLC; type: cell-based, human; conditions: HepG2, 25HC3S 6 hrs then [14C]acetate 4 hrs
Protocol: After incubation of HepG2 cells with media containing 25HC3S for 6 hrs, cultures in 25-cm2 flasks were given 3 ml of the same fresh medium containing 5 μCi of the [1-^14C]acetate. After 4 hr incubation at 37° C., the media were removed and the cells were washed twice with phosphate-saline buffer (PBS), harvested with rubber police as described, and collected in Eppendoff tubes. The cells were sedimented by centrifugation and the pellets were washed three times by resuspension and sedimentation. The pellets were resuspended in 0.3 ml of PBS. The total lipids were extracted and separated by adding 3 volume of chloroform:methanol (v/v, 1:1). [^14C]Cholesterol and 27-hydroxycholesterol was isolated into chloroform phase and separated on TLC (tuluene:acetyl acetate, 2/3, v/v/). [1-^14C]acetate derivatives were visualized by Image Reader, Fujifilm BAS-1800 II.
[1-^14C]Acetate derivatives in the chloroform phase were analyzed by HPLC on an Ultrasphere Silica column (5μ×4.6 mm×25 cm; Backman, USA) using HP Series 1100 solvent delivery system (Hewlett Packard) at 1.3 ml/min flow rate. The column was equilibrated and run in a solvent system of hexane:isopropanol:glacial acetic acid (965:25:10, v/v/v), as the mobile phase. The effluents were collected every 0.5 min (0.65 ml per fraction) except as indicated. The counts in [^14C]acetate derivatives were determined by Scintillation Counting. […]

[5] = target: T1, PPARγ (Homo sapiens, UniProt P37231); assay: PPARγ transcription factor assay (PPRE-immobilized ELISA) of nuclear extracts; type: cell-based; conditions: THP-1 macrophages, 4 hrs, concentration-dependent
T1 construct: THP-1 monocytes were differentiated to macrophages by adding 100 nM of phorbol 12-myristate 13-acetate (PMA); endogenous in cells; host or cells: THP-1 monocyte-derived macrophages (human, ATCC)
T1 sequence (P37231 1-505): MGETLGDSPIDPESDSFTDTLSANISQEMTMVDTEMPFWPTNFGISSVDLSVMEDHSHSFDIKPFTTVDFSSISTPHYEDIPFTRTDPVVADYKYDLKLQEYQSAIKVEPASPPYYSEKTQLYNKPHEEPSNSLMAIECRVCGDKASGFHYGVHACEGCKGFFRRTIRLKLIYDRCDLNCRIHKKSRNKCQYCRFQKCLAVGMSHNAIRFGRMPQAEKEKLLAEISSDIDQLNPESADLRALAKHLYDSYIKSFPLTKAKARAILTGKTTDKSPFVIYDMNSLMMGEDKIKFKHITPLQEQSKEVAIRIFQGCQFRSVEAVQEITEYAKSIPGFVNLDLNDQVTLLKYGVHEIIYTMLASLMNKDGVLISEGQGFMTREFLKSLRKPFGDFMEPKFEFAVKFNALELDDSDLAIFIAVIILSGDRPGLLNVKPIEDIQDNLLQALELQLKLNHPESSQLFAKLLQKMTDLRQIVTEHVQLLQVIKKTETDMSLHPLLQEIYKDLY
Protocol: PPAR response elements (PPRE) binding activities were measured using an enzyme-linked immunosorbent assay (PPAR transcription factor assay kit; Cayman Chemical, Ann Arbor, Mich.). The 96-well plate was preimmobilized with deoxyoligonucleoties containing PPRE. […] The cells were then rinsed and nuclear proteins were extracted according to the manufacturer's instructions. Total nuclear extract protein, 10 g from each sample, was added to the plate. The kit provided two negative as zero controls, one positive as maximal binding control, and one competitive as specific binding control (in the presence of dsDNA) were used in the assay. After incubating for 1 hr, the wells were washed and incubated with primary PPAR antibody which recognizes the accessible epitope on PPAR protein upon PPRE binding. The peroxidase-labeled second antibody was added and incubated for 1 hr. The reaction was stopped and absorbance was read at 450 nm in a spectrophotometer.

[6] = female mice, 72 μg peritoneal injection once, 12 hrs
[7] = in vivo, only one administration

With `C[C@H](CCCC(C)(C)O)[C@H]1CC[C@H]2[C@@H]3CC=C4C[C@@H](OS(=O)(=O)O)CC[C@]4(C)[C@H]3CC[C@]12C` [25HC3S, 5-cholesten-3β, 25-diol 3-sulphate] the “TNFα induction of NFκB dependent reporter gene expression” value ([1]; H441, absence of PPARγ expression plasmid) was “failed to suppress”, the “reduction of TNFα induction of NFκB dependent reporter gene expression” value ([1]; H441 co-transfected with PPARγ expression plasmid) was 50% and the “suppression of NFκB reporter induction in the presence of PPARγ antagonist” value ([1]; H441 co-transfected with PPARγ, T0070907) was “the suppression was blunted”. For the same compound, the “activities of alkaline phosphotase, SGPT and SGOT in sera” value ([2]; female mice, 72 μg peritoneal injection once) was “did not increase”, the “decrease of cholesterol levels in serum” value [2, 6] was 15% and the “decrease of triglycerides in serum” value [2, 6] was 40%. For the same compound, the HDL [2, 7] was “significantly increases”, the decrease of serum cholesterol and triglyceride [2, 7] was 20% and the “PPARγ reporter gene activities in the presence of the antagonist T0070907” value ([3]; H441, ACOX-PPRE reporter and PPARγ co-overexpression, 1 μM T0070907) was “failed”. The “PPRE activity relative to rosiglitazone” value ([3]; at 25 μM) was “reached to a similar levels as that induced by the PPARγ agonist rosiglitazone”, the “free [14C]cholesterol synthesized from [14C]acetate” value [4] was “significantly decreased” and the “PPRE-binding activities of the nuclear extracts” value [5] was “significantly increased”.
